Test results: ChEMBL document CHEMBL1201862, “PubChem BioAssay data set” (2004)
Counter-ions that a name gives are not always drawn. One block for each compound: values may come before it. Calls of active or inactive are those of the source.

Experiments:
[1] = loss of viability in HepG2 cells – cell-based, CellTiter-Glo, cherry-picked, cytotoxicity control for Shn3 inhibitor project, dose response (AID 624134); type: functional
[2] = non-specific 3'UTR reporter inhibition in Clone20-Shn3RL – cell-based, Renilla luciferase, cherry-picked, counter-screen for Shn3 inhibitor project, dose response (AID 624133); type: functional
[3] = Shn3 3'UTR reporter signal decrease – cell-based, Clone20 osteoblasts, firefly luciferase, cherry-pick, set 2, Schnurri-3 inhibitor project, dose response (AID 720490); type: functional;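 further: actives lower the luminescence signal as inhibitors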
[4] = reduction of Shn3 3'UTR-driven luciferase in osteoblasts – cell-based, Clone20 osteoblasts, firefly luciferase, cherry-picked, dose response (AID 624132); type: functional;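 further: firefly luciferase luminescence from reporter carrying the Shn3 3'UTR in osteoblasts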
Prothrombin = Prothrombin (Homo sapiens, UniProt P00734); experiment: Thrombin 1536 HTS Dose Response Confirmation. [Related pubchem assays: 1046 (Thrombin 1536 HTS; hits were confirmed in this assay)]; type: functional
[5] = target: Solute carrier family 12 member 2/member 5 (Homo sapiens, UniProt P55011+Q9H2X9); experiment: KCC2 and NKCC1 inhibition by rubidium flux, cell-based, NKCC1 counter-screen (AID 1734); type: functional, HEK293
[6] = target: T1, Small ubiquitin-related modifier 1 (Homo sapiens, UniProt P63165); experiment: SUMO1 protein interaction blockers, potency – biochemical, fluorescence polarization, uHTS hits, dose response (AID 624382); type: functional; settings: read-out: IC50_Mean
[7] = target: T1, Small ubiquitin-related modifier 1; experiment: SUMO1 protein-protein binding blockers, potency – biochemical, FRET, dose response (AID 624383); type: functional; settings: read-out: IC50_Mean
Kallikrein-7 = Kallikrein-7 (Homo sapiens, UniProt P49862); experiment: Fluorescence Intensity-based biochemical primary high throughput dose response assay to identify activators of kallikrein-7 (K7) zymogen.
Paired box protein Pax-8 = Paired box protein Pax-8 (Homo sapiens, UniProt Q06710); experiment: PAX8 transcriptional activity inhibition in RMG-I – RMG-I cells, luciferase, cherry-pick, dose response (AID 687027); type: functional, cell-based;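 further: luciferase reporter driven by Pax8 target thyroperoxidase promoter measured by SteadyGlo luminescence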
[8] = Dd2 parasite growth inhibition in erythrocytes – SYBR Green, dry powder samples, set 9, dose response (AID 1159568); type: functional, cell-based
cells [9] = experiment: cells
[10] = target: T2, Oxysterols receptor LXR-beta (Homo sapiens, UniProt P55055); type: functional, cell-based;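 further: Cell-based luminescence dose-response assay of agonist activity at LXR, run as a confirmatory counterscreen to a daf-12 agonist screen; HEK293 cells with Gal4-LXR fusion and GAL4-driven luciferase reporter; agonist potency from rising luciferase signal of a Gal4-LXR reporter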
T2 sequence (P55055 whole entry): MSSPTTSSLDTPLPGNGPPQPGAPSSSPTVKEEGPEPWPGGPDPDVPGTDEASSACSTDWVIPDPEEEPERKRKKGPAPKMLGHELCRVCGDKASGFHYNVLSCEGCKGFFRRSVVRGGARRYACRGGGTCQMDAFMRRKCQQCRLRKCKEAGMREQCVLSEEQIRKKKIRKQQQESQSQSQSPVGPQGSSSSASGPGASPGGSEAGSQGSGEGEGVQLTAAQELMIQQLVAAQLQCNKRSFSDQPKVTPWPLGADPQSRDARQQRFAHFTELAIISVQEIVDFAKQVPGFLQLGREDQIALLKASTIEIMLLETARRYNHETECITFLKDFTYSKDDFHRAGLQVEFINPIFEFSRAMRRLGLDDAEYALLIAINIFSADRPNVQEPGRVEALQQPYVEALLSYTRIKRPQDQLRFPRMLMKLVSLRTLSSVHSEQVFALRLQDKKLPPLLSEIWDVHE

[11] = IC50 of insulin release inhibition, rat insulinoma INS-1E line, 5 mM glucose, cell-based (AID 1117331); type: functional
[12] = P. falciparum Dd2 growth inhibitors, dose response, SYBR Green, cherry-picked samples (AID 1159567); type: functional, cell-based
[13] = toxicity to human hepatoma HepG2 cells – cell-based, cherry-picked samples, cytotoxicity control, dose response (AID 1159577); type: functional
[14] = NIH3T3 cell viability loss – ATP luminescence, mouse fibroblasts, counter-screen, dose response (AID 2010); type: functional, cell-based;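 further: cells exposed to compound for about 90 hours before reading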
cells [15] = experiment: cells; remark: listed apart in the source
[16] = Trypanosoma cruzi growth suppression in host cells – NIH3T3 host cells, beta-gal luminescence, confirmation (AID 2044); type: functional, cell-based;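 further: intracellular parasites grown in NIH/3T3 mouse fibroblasts as host cells; luminescent beta-galactosidase reporter signal from transgenic T. cruzi replicating inside host cells; inhibitors lower the luminescence signal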

T1 sequence (P63165 whole entry): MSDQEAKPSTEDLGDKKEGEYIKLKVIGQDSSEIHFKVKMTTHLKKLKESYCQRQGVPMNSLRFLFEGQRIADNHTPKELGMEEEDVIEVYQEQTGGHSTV
Sequence of Kallikrein-7 (P49862 whole entry): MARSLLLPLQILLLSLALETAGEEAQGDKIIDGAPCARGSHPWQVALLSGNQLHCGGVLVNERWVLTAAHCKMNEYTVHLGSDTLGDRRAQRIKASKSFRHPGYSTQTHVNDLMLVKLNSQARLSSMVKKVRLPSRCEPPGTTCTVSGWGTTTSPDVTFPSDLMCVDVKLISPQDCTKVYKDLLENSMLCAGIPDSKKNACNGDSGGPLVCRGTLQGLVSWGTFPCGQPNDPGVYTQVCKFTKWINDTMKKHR
Sequence of Paired box protein Pax-8 (Q06710 whole entry): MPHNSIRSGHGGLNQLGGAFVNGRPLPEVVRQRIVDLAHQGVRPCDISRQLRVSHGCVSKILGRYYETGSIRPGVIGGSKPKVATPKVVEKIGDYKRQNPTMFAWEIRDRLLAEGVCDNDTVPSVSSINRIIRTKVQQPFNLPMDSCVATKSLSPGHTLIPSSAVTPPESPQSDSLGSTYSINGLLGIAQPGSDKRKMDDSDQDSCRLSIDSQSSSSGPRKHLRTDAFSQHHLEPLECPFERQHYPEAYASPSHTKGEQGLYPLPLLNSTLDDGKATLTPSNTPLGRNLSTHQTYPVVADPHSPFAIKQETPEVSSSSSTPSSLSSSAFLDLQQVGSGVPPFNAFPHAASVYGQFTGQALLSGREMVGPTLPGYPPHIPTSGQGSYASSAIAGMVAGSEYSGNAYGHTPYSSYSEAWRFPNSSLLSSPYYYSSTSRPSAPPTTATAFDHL

Compound: COc1cccc(-n2c(C)nc3c(cnn3-c3ccc(Cl)cc3)c2=O)c1
AC50 [1]: 61.4 µM (active) | AC50 [2]: 2.98 µM (active) | AC50 [3]: 2.14 µM (active) | AC50 [4]: 391 nM (active)

IC50 (Prothrombin): > 50 µM (not active)
Compound: O=C(NC(=S)Nn1cnnc1)c1ccccc1Cl

IC50 [5]: 2.5 µM (active)
Compound: CN(Cc1ccccc1)S(=O)(=O)c1ccc(Cl)c(C(=O)NCCc2ccccn2)c1

Compound: O=C(Cc1cc(=O)oc2cc(O)ccc12)NN=Cc1ccc(N(CCCl)CCCl)cc1
IC50 [6]: > 66.6 µM (inactive) | IC50 [7]: 8.3 µM (active) | EC50 (Kallikrein-7): > 23.2 µM (inactive)

EC50 (Kallikrein-7): > 2.58 µM (active)
Compound: Cc1cccn2c(=O)c3cc(C(=O)N4CCOCC4)n(C)c3nc12

Compound: C[C@@H]1CN([C@@H](C)CO)C(=O)c2cc(N(C)C)ccc2O[C@@H](C)CCCCO[C@H]1CN(C)S(=O)(=O)c1ccc(F)cc1
AC50 (Paired box protein Pax-8): 6.76 µM (active) | AC50 [8]: 19.4 µM (active)

Compound: CCOC(=O)c1cc(-c2cccc(O)c2)oc1C
EC50 (cells [9]): > 67.5 µM (inactive) | EC50 [10]: > 67.5 µM (inactive)

Compound: C[C@@H](C1=C(CCN(C)C)Cc2ccccc21)c1ccccn1
IC50 [11]: 8.41 µM (inactive)

Compound: COc1cc(CN2C[C@@H]3N[C@H](C2)[C@H]3c2ccc(/C=C/c3ccccc3)cc2)cc(OC)c1
AC50 [12]: 2.11 µM (active) | AC50 [13]: 7.85 µM (active)

Compound: C(=C\c1ccc([C@@H]2[C@@H]3CN(Cc4nccs4)C[C@H]2N3)cc1)/c1ccccc1
AC50 [12]: 3.67 µM (active) | AC50 [13]: 7.83 µM (active)

Compound: O=C(N/N=C/c1ccc([N+](=O)[O-])o1)c1cn(-c2ccccc2)nc1-c1ccccc1
EC50 [14]: > 60 µM (not active) | EC50 (cells [15]): 54 nM (active) | EC50 [16]: < 100 nM (active)

Compound: C[C@@H]1CCCCO[C@@H](CN(C)S(=O)(=O)c2ccc(F)cc2)[C@H](C)CN([C@H](C)CO)C(=O)c2cc(N(C)C)ccc2O1
AC50 [8]: 4.62 µM (active)

Compound: CCN1CCCC(OC(=O)C(c2ccccc2)c2ccccc2)C1 (centres undefined) [PIPERIDOLATE HYDROCHLORIDE]
IC50 [11]: 18.2 µM (inactive)
